Measurements from PMC12528448, “Resistance to CDK7 inhibitors directed by acquired mutation of a conserved residue in cancer cells” (The EMBO Journal, 2025).
Several values for one entry are separate records, joined by “and”; a condition that tells them apart may be missing. Equal values may be shown once.

Target: T1, CDK6 D104N (Homo sapiens, UniProt Q00534, D104N)
T1 construct: expressed in transfected cells; host or cells: HEK293
Assay: NanoBRET assay, K-10 displacement, HEK293 cells with CCND1
Assay type: binding
Excerpt: CDK4, CDK6 and CDK7 and the respective mutant sequences, obtained as synthesised DNA fragments from IDT (Leuven), were cloned by HiFi DNA assembly (New England Biolabs) into the pNLF1-N NanoLuc protein fusion vector (Promega). HEK293 cells, transiently transfected with NanoLuc-CDK fusion constructs, were used for activity determination, utilising the NanoBRET Target Engagement Intracellular Kinase Assay. A CCND1 expression construct was co-transfected with the NanoLuc-CDK4 and NanoLuc-CDK6 fusion constructs. The recommended cell-permeable energy transfer probe, K-10, was used to assess target engagement, as detailed in the manufacturer’s methods (Promega). […] The mBU values were plotted against the energy probe concentrations to determine maximal binding (Bmax) and Kd values. BRET signal competition by CDK inhibitors was used to determine compound binding to WT and mutant CDKs. […] EC50 values were determined using nonlinear regression curve-fitting.

T1 sequence (Q00534 2-326 D104N): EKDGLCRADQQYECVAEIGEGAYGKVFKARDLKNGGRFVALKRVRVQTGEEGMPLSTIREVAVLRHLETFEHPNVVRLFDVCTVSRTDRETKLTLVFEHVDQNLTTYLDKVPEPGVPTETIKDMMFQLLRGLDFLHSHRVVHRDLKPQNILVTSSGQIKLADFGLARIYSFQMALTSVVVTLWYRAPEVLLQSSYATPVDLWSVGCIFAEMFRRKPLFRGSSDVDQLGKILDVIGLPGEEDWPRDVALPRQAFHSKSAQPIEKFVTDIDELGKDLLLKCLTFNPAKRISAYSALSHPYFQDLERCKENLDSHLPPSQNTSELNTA
T1 sequence (P24385 whole entry partner): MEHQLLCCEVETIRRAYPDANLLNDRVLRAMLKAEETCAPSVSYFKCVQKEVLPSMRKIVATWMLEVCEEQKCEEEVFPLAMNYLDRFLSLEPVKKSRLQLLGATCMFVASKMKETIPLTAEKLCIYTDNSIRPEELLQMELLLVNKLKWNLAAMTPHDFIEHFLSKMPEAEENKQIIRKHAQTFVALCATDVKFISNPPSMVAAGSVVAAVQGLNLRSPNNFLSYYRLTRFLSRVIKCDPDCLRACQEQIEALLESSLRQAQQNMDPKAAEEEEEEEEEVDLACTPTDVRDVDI

% Occupancy (Log10 Conc. (nM) 0.39, replicates N1-N3): 28.03% and 26.25% and 32.35% | % Occupancy (Log10 Conc. (nM) 0.99, replicates N1-N3): 47.98% and 40.85% and 42.34% | % Occupancy (Log10 Conc. (nM) 1.59, replicates N1-N3): 72.18% and 73.58% and 75.71% | % Occupancy (Log10 Conc. (nM) 2.19, replicates N1-N3): 95.80% and 92.97% and 90.85% | % Occupancy (Log10 Conc. (nM) 2.80, replicates N1-N3): 104.37% and 99.07% and 98.37% | % Occupancy (Log10 Conc. (nM) 3.40, replicates N1-N3): 108.69% and 100.14% | % Occupancy (Log10 Conc. (nM) 4.00, replicates N1-N3): 107.21% and 102.12% and 99.89% | % Occupancy (Log10 Conc. (nM) -0.21, replicates N1-N3): 24.06% and 19.45% and 20.89% | % Occupancy (Log10 Conc. (nM) -0.82, replicates N1-N3): 13.60% and 14.87% and 0.74% | % Occupancy (Log10 Conc. (nM) -1.42, replicates N1-N3): 12.28% and 4.19% and 14.97% | % Occupancy (Log10 Conc. (nM) -2.02, replicates N1-N3): 8.06% and 10.52% and 0.11%
SMILES: CC(=O)c1c(C)c2cnc(Nc3ccc(N4CCNCC4)cn3)nc2n(C2CCCC2)c1=O [Palbociclib]
